Patent US20080039485A1, “LOW-DOSE-LONG-TERM PHARMACEUTICAL COMPOSITION COMPRISING CAMPTOTHECIN DERIVATIVES FOR THE TREATMENT OF CANCERS” (TARGETGEN BIOTECHNOLOGY CO., LTD., priority 2006, published 2008)

Tests used:
[1] = test system: histone H1 and H3; conditions: murine hepatoma cells; cited from earlier work
[2] = test system: Colo-205 cells; test: Viable cell number by trypan blue exclusion assay; assay type: cell-based, human; conditions: 5, 10, 15 or 20 nM, 24 to 120 hr, vs untreated cells
Method: To investigate the effect of 10-HCPT on the growth of Colo-205 cell line, the cells were treated with a series of dosages of 10-HCPT and harvested at different time points. The cell numbers were determined by trypan blue exclusion assay as described below.
Colo-205 cells (5×10^5) were seeded in 25T flasks overnight and then treated without (control) and with 5, 10, 15, or 20 nM of 10-HCPT, respectively. After treatment for 24 to 120 hr, cells were harvested by trypsin-EDTA and then centrifuged at 1500 rpm for 5 min at 4° C. The cell pellet was resuspended in culture medium containing 0.04% trypan blue and the viable cells were enumerated by a hemocytometer.

[3] = test system: cell cycle regulatory proteins in Colo-205 cells; test: Western blotting of cell cycle regulatory proteins; assay type: cell-based, human; conditions: Colo-205, 3 μM, 48 hr
From the text: The progression of the cell cycle is promoted by various CDKs binding with their respective cyclin partners and inhibited by CDK inhibitors such as p21 and p27. In general, CDK2 in association with cyclin E regulates the G1/S transition, and CDK1 in concert with type-A and -B cyclins controls the G2/M transition. Both cell cycle inhibitory proteins p21 and p27 block cell cycle progression at the G1/S as well as the G2/M transitions of cell cycle. […] To confirm this speculation, we analyzed the expressions of several cell cycle regulatory proteins by means of Western blotting assay as described below.
Colo-205 cells were cultured in Dulbecco's modified Eagle Medium (DMEM) supplemented with 10% fetal bovine serum (FBS) at 37° C. in a 5% CO2 atmosphere. Cells were seeded in 6-well plate and incubated with 3 μM of 10-HCPT. After 48 hr, the treated cells were washed twice with phosphate-buffered saline (PBS), flash frozen in liquid nitrogen, and stored at −80° C. The harvested cells were lysed in ice-cold report lysis buffer (Promega). After cleaning the resulted lysates by centrifugation, protein in the clear lysate was quantified by Dc protein assay kit (Bio-Rad). 15 μg of lysate protein were resolved by 10% SDS-PAGE, transferred onto a polyvinylidene difluoride membrane (PVDF membrane, Amersham Biosciences), and immunoblotted with antibodies against followed cellular proteins: DNA topoisomerase I, p53, p27, phosphorylated p27 (Santa Cruz Biotechnology), cyclin E, CDK2 (BD Pharningen), PCNA, p21 (Upstate), and α-tubulin (Sigma). Protein content was visualized with BM Chemiluminescence Blotting Kit (Roche Molecular Biochemicals). The blots were exposed to X-ray film (Fuji) for various times.

[4] = test system: caspase-3; test: DEVD-pNA cleavage activity (Caspase-3 Colorimetric Assay Kit); assay type: cell-based, human; conditions: Colo-205 lysates, 48 hrs treatment, vs drug-free control
Method: In addition, to further determine whether caspases participate in the propagation of apoptosis induced by 10-HCPT in Colo-205 cells, cell lysates from drug-treated cells were analyzed for the cleavage of the p-nitroaniline-tagged peptides N-Acetyl-Asp-Glu-Val-Aps-pNA (DEVD-pNA), which represent preferential substrates for caspase-3. Caspase activation leads to the release of pNA that can be monitored by absorbance measurements at 405 nm using a plate reader. Specifically, DEVD-pNA cleavage activity was measured using Caspase-3 Colorimetric Assay Kit (BioVision) according to the recommended protocols. 3×10^6 of 10-HCPT treated cells were harvested, resuspended in 50 μl of chilled cell lysis buffer and incubated on ice for 10 min before centrifugation (12,000 rpm for 3 min at 4° C.). The supernatant was collected and the total protein concentration of the supernatant was determined by Dc protein assay kit (Bio-Rad). Each assay reaction containing 100 μg of cell lysates, 50 μl of 2× reaction buffer supplemented with 10 mM DTT, and 5 μl of the 4 mM of DEVD-pNA (200 μM final concentration) was carried out at 37° C. for 1 hr. The formation of p-nitroanilide was detected at 405 nm in a microtiter plate reader.

[5] = cited from earlier work
[6] = test system: Colo-205 cells; test: Cell cycle distribution by propidium iodide staining and flow cytometry; assay type: cell-based, human; conditions: various concentrations, 48 hrs
Method: We further investigated if the suppression of cell growth induced by 10-HCPT on Colo-205 was due to either cell cycle arrest or cell death. The Colo-205 cells were treated with various concentrations of 10-HCPT for 48 hrs and analyzed by propidium iodide staining and flow cytometry as described below.
After treatment with 10-HCPT, cells were trypsinized and resuspended in 70% ethanol. The cells were incubated on ice for at least 1 hr and resuspended in 1 mL of cell cycle assay buffer (0.38 mM sodium citrate, 0.5 mg/mL RNase A, and 0.01 mg/mL propidium iodide) at a concentration of 5×10^5 cells/mL. Samples were stored in the dark at 4° C. until cell cycle analysis, which was carried out by use of a flow cytometer and ModFit LT 2.0 software (Verity Software, Topsham, Me.).
A FACScan flow cytometer (Becton Dickinson, Bedford, Mass.) equipped with a 488-nm argon laser was used for analysis of cellular function by flow cytometry. Forward and side scatters were used to establish size gates and exclude cellular debris from the analysis. The excitation wavelength was set at 488 nm. The observation wavelength of 530 nm was chosen for green fluorescence and 585 nm for red fluorescence and the intensities of emitted fluorescence were collected on FL1 and FL2 channels, respectively. In each measurement, a minimum of 20,000 cells was analyzed. Data were acquired and analyzed using the Cell Quest software (Becton Dickinson). Relative change in the mean fluorescence intensity was calculated as the ratio between mean fluorescence intensity in the channel of the treated cells and that of the control.

[7] = previous pharmacokinetic studies

SMILES: CC[C@@]1(O)C(=O)OCc2c1cc1n(c2=O)Cc2cc3cc(O)ccc3nc2-1 [10-HCPT, 10-hydroxy-camptothecin]
- effect on phosphorylation of histone H1 and H3 [1]: inhibitory effect
- effect on cell number increase [2]: suppression of cell number increasing in dose-dependent manner
- CDK2 expression [3]: increasing expression
- PCNA protein level [3]: no effect
- amount of p27 [3]: decreasing amount
- cdc25c expression [3]: enhanced
- cyclin B1 expression [3]: enhanced
- cyclin E expression [3]: increasing expression
- p21 protein level [3]: dramatically increased
- absorbance with the DEVD-pNA substrate [4]: clearly elevated
- toxicity with i.v. administration ([5]; i.v.): Dose-dependent toxicity was observed
- distribution half-life [5, 7]: short
- elimination half-life [5, 7]: prolonged
- cell populations in G0/G1 phase [6]: decreasing
- cell populations in G2/M phase [6]: induced dramatically the increasing
- population in sub G0/G1 phase [6]: increasing population
- S phase of cell cycle ([6]; vs untreated): no significant differences
